Experimental findings from patent US8106063B2, “Pyrimidyl sulphone amide derivatives as chemokine receptor modulators” (AstraZeneca AB, priority 2002, dated 2012) are described below.

The experiment deals with T1, hrCXCR2 (Homo sapiens, UniProt P25025).
T1 construct: expressed in transfected cells; host or cells: HEK 293 cells (ECACC No. 85120602), membranes of the highest expressing clone
T1 sequence (P25025 1-360): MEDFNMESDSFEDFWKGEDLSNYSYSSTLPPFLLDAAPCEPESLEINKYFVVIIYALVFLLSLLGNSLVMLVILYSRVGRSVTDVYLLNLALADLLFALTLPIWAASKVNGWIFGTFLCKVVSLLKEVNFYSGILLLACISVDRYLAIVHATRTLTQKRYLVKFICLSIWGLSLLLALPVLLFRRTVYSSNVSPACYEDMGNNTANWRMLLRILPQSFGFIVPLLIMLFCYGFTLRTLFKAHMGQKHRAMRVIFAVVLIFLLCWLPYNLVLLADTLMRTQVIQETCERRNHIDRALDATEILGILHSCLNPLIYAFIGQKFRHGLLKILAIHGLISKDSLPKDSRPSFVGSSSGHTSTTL
In words: Ligand binding assay ([125I]IL-8 binding to hrCXCR2 membranes). The following applies: ~50 pM [125I]IL-8, membranes of HEK 293 cells expressing hrCXCR2, 1.5 hours at room temperature.

Structures are written as SMILES.

For `Cc1cccc(CSc2nc(NC(C)(C)CO)cc(NS(C)(=O)=O)n2)c1F` [Example 116, N-{2-[(2-Fluoro-3-methylbenzyl)thio]-6-[(2-hydroxy-1,1-dimethylethyl)amino]-pyrimidin-4-yl}methanesulfonamide], the half-inhibitory concentration (IC50) (commonly the concentration that inhibits the measured activity by half) is 158 nM.
